Laboratory results from PubChem BioAssay (NCI).
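Five concentrations, 48 hours, 96-well plates. GI50 is the concentration that inhibits growth by half. TGI is the concentration that stops growth completely.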

Key:
Test in all cases: NCI anticancer screen, dose series, 48 h
[1] = tested on: 786-0 renal
[2] = tested on: A498 renal
[3] = tested on: A549 NSCLC
[4] = tested on: ACHN renal
[5] = tested on: BT-549 breast
[6] = tested on: CAKI-1 renal
[7] = tested on: CCRF-CEM leukemia
[8] = tested on: COLO 205 colon
[9] = tested on: DU-145 prostate
[10] = tested on: HCC-2998 colon
[11] = tested on: HCT-116 colon
[12] = tested on: HCT-15 colon
[13] = tested on: HL-60(TB) leukemia
[14] = tested on: HOP-62 NSCLC
[15] = tested on: HS 578T breast
[16] = tested on: HT29 colon
[17] = tested on: IGROV1 ovarian
[18] = tested on: K-562 leukemia
[19] = tested on: KM12 colon
[20] = tested on: LOX IMVI melanoma
[21] = tested on: MALME-3M melanoma
[22] = tested on: MCF7 breast
[23] = tested on: MDA-MB-231 breast
[24] = tested on: MOLT-4 leukemia
[25] = tested on: NCI-H226 lung
[26] = tested on: NCI-H23 lung
[27] = tested on: NCI-H460 lung

For COc1cc(-c2cc(-c3cc(OC)c(OC)c(OC)c3)nc3nc(N)[nH]c(=O)c23)ccc1Oc1ccnc2cc(Cl)ccc12, the GI50 [1] was 3.86 µM, the TGI [1] was over 100 µM and the GI50 [2] was 16.3 µM. The TGI [2] was 86.4 µM, the GI50 [3] was 2.84 µM and the TGI [3] was over 100 µM. For the same compound, the GI50 [4] was 2.89 µM, the TGI [4] was 82.7 µM and the GI50 [5] was 2.91 µM. The TGI [5] was 20.8 µM, the GI50 [6] was 2.7 µM and the TGI [6] was over 100 µM. For the same compound, the GI50 [7] was 2.66 µM, the TGI [7] was over 100 µM and the GI50 [8] was 12.9 µM. The TGI [8] was 30 µM, the GI50 [9] was 3.51 µM and the TGI [9] was over 100 µM. It also gave a GI50 [10] of 3.14 µM, a TGI [10] of 11.3 µM and a GI50 [11] of 1.29 µM. The TGI [11] was 22.2 µM, the GI50 [12] was 0.457 µM and the TGI [12] was 24.4 µM. It also gave a GI50 [13] of 2.45 µM, a TGI [13] of 8.22 µM and a GI50 [14] of 2.35 µM. The TGI [14] was 16.7 µM, the GI50 [15] was 3.1 µM and the TGI [15] was over 100 µM. The GI50 [16] was 10.5 µM, the TGI [16] was 25.4 µM and the GI50 [17] was 4.49 µM. It also gave a TGI [17] of over 100 µM, a GI50 [18] of 0.379 µM and a TGI [18] of over 100 µM. It also gave a GI50 [19] of 0.548 µM, a TGI [19] of 14.9 µM and a GI50 [20] of 1.27 µM. The TGI [20] was 19.8 µM, the GI50 [21] was 3.5 µM and the TGI [21] was over 100 µM. The GI50 [22] was 0.762 µM, the TGI [22] was over 100 µM and the GI50 [23] was 2.59 µM. The TGI [23] was 24.7 µM, the GI50 [24] was 2.78 µM and the TGI [24] was over 100 µM. For the same compound, the GI50 [25] was 13.4 µM, the TGI [25] was 35.9 µM and the GI50 [26] was 3.43 µM. It also gave a TGI [26] of 24.9 µM and a GI50 [27] of 3.45 µM.
